Patent US11091511B2, “Panaxdiol-type ginsenoside derivative, preparation method therefor and use thereof” (ARMY MEDICAL UNIVERSITY, priority 2016, dated 2021)
Marks after values point to notes of the source that are not given here.

Columns and labels:
[1] = system: RAW264.7 cell-derived foam cells; assay: Formation of RAW264.7 cell-derived foam cells (ox-LDL, oil red O, absorbance 490 nm); type: cell-based, mouse; conditions: 48 hours, model group = 100%, x ± s, n = 3
Protocol: The effects of the compounds prepared in Examples 1-30 of the present invention on the formation of RAW264.7 cell-derived foam cells, the specific steps are as follows:
1. Cell culture and foam cell model establishment:
RAW264.7 cells were cultured in DMEM culture medium with high glucose level (GIBCO) to a cell concentration of 1×10^6, planted in a 6-well plate, and 60 mg/L of ox-LDL (oxidized modified low-density lipoprotein, Peking Union Medical College) was added, foam cells were obtained after 48 hours of incubation.
2. Grouping and index detection:
The obtained foam cells were divided into 61 groups, 3 well plates were included in one group. After the treatment by adding the drugs (100 μL/well) for 48 hours, the medium was discarded, and after oil red 0 staining, the excess amount of oil red 0 was washed away. The cells were dissolved in isopropanol and the absorbance values were measured at 490 nm. The OD value of the model group was 100%, and the OD value of each group corrected by the number of cells was compared with the model group to obtain the ratio of intracellular lipid content. The larger the value, the more intracellular lipids, the higher the degree of formation of foam cells.
Normal saline control group: normal saline
Low dose groups of the compounds prepared in Examples 1-30 of the present invention:
10 μmol/L (solvents were normal saline).
High dose groups of compounds prepared in Examples 1-30 of the present invention: 30 μmol/L (solvents were normal saline).
Data were expressed as x±s, and SPSS 10.0 line single-factor analysis of variance was performed amoung groups, a significant difference was indicated when p<0.05.

[2] = system: apoE−/− mice; assay: Blood lipids (LDL-C, HDL-C) in apoE-/- mice on high-fat diet; type: in vivo, mouse; conditions: apoE-/- mice serum, intragastric 15 weeks, compounds 30 mg/(kg·d), simvastatin 10 mg/(kg·d), x ± s; for HDL-C: n = 5, saline control 3.74 ± 0.62; for LDL-C: n = 5, saline control 7.33 ± 1.03
Excerpt: The effects of the compounds prepared in Examples 1-30 of the present invention on the percentages of areas of atherosclerotic plaque formation to the area of the entire artery in apoE−/− mice with a high-fat diet and the levels of low-density lipoprotein cholesterol and the levels of high-density lipoprotein, the specific steps are as follows:
1. animals: 160 ten-week-old, healthy and clean-grade apoE−/− mice (purchased from Peking University Experimental Animal Center), males, weight: 22-25 g, were housed in separate cages in a sterile laminar feeding room and fed freely. The mice were fed by a high-fat diet (conventional feed+0.15% cholesterol+21% lard) for 25 weeks, the room temperature was kept at 24° C., relative humidity: 50%, illumination time 7:30-19:30.
2. Grouping, administration method:
after 10 weeks of feeding, the animals were divided into the following 32 groups (n=5) by weight in a balanced and random manner, and killed 15 weeks after administration.
Normal saline control group: normal saline, intragastric administration.
Positive control group: simvastatin 10 mg/(kg·d), intragastric administration.
The compound groups prepared in Examples 1-30 of the present invention (30 groups in total): each was intragastric administered 30 mg/(kg·d).
(2) Determination of the levels of total cholesterol (TC), low-density cholesterol lipoprotein (LDL-C) and high-density lipoprotein cholesterol (HDL-C): using ROCHE 7060 automatic biochemical analyzer for the determination.
Data were expressed as x±s, and SPSS 10.0 line single-factor analysis of variance was performed among groups, a significant difference was indicated when p<0.05.

[3] = system: RAW264.7 cells; assay: RAW264.7 cell survival rate by CCK8 method; type: cell-based, mouse; conditions: compound 10 prnol/L, 0.1% DMSO, CCK8, x ± s, n = 3, normal saline control = 1
Protocol: In order to further verify the toxicities of the compounds prepared in Examples 1-30 of the present invention, the mouse macrophage cell line RAW264.7 was cultured, and the compounds prepared in Examples 1-30 of the invention were prepared to a concentration of […] using culture medium, wherein the solvent was normal saline, the co-solvent was dimethyl sulfoxide (DMSO, the final concentratoin was 0.1%), and a 0.1% DMSO saline control group was provided. The cell survival rate was determined by CCK8 method. The data were expressed as x±s. SPSS 10.0 line single-factor analysis of variance was performed among groups. The difference was significant when p<0.05.

[4] = system: apoE−/− mice; assay: Atherosclerotic plaque area to total aortic area in apoE-/- mice on high-fat diet (Sudan IV staining); type: in vivo, mouse; conditions: intragastric 15 weeks, compounds 30 mg/(kg·d), simvastatin 10 mg/(kg·d), x ± s, n = 5, saline control 14.67 ± 3.58
Excerpt: The effects of the compounds prepared in Examples 1-30 of the present invention on the percentages of areas of atherosclerotic plaque formation to the area of the entire artery in apoE−/− mice with a high-fat diet and the levels of low-density lipoprotein cholesterol and the levels of high-density lipoprotein, the specific steps are as follows: 1. animals: 160 ten-week-old, healthy and clean-grade apoE−/− mice (purchased from Peking University Experimental Animal Center), males, weight: 22-25 g, were housed in separate cages in a sterile laminar feeding room and fed freely. The mice were fed by a high-fat diet (conventional feed+0.15% cholesterol+21% lard) for 25 weeks, the room temperature was kept at 24° C., relative humidity: 50%, illumination time 7:30-19:30. 2. Grouping, administration method: after 10 weeks of feeding, the animals were divided into the following 32 groups (n=5) by weight in a balanced and random manner, and killed 15 weeks after administration. Normal saline control group: normal saline, intragastric administration. Positive control group: simvastatin 10 mg/(kg·d), intragastric administration. The compound groups prepared in Examples 1-30 of the present invention (30 groups in total): each was intragastric administered 30 mg/(kg·d). (1) Analysis of the area of atherosclerotic plaque and its percentage to total area: after the animals were killed, the aortas were separated, from the roots of the aortas to the terminal bifurcations of the abdominal aortas. After formalin fixation, the aortas were stained with Sudan IV, the red stained parts were the areas of atherosclerotic lesions. The percentage of the area of the lesion area to total area was calculated using Image Pro Plus 5.0 software. Data were expressed as x±s, and SPSS 10.0 line single-factor analysis of variance was performed among groups, a significant difference was indicated when p<0.05.

[5] = system: TNF-α; assay: Local TNF-α level in the arteries of apoE-/- mice (Millipore liquid phase chip); type: in vivo, mouse; conditions: high-fat diet, intragastric 15 weeks, compounds 30 mg/(kg·d), simvastatin 10 mg/(kg·d), x ± s, n = 5, saline control 25.58 ± 6.44
Excerpt: The effects of the compounds prepared in Examples 1-30 of the present invention on the percentages of areas of atherosclerotic plaque formation to the area of the entire artery in apoE−/− mice with a high-fat diet and the levels of low-density lipoprotein cholesterol and the levels of high-density lipoprotein, the specific steps are as follows: 1. animals: 160 ten-week-old, healthy and clean-grade apoE−/− mice (purchased from Peking University Experimental Animal Center), males, weight: 22-25 g, were housed in separate cages in a sterile laminar feeding room and fed freely. The mice were fed by a high-fat diet (conventional feed+0.15% cholesterol+21% lard) for 25 weeks, the room temperature was kept at 24° C., relative humidity: 50%, illumination time 7:30-19:30. 2. Grouping, administration method: after 10 weeks of feeding, the animals were divided into the following 32 groups (n=5) by weight in a balanced and random manner, and killed 15 weeks after administration. Normal saline control group: normal saline, intragastric administration. Positive control group: simvastatin 10 mg/(kg·d), intragastric administration. The compound groups prepared in Examples 1-30 of the present invention (30 groups in total): each was intragastric administered 30 mg/(kg·d). (3) Determination of TNF-α level: Millipore liquid phase chip method was used for the determination (Mcytomag-70K-3, Mouse Cytokine/Chemokine Magnetic Bead Panel). Data were expressed as x±s, and SPSS 10.0 line single-factor analysis of variance was performed among groups, a significant difference was indicated when p<0.05.

Structure (SMILES)	Foam cell formation (%) ([1]; dose 10 μmol/L)	Foam cell formation (%) ([1]; dose 30 μmol/L)	HDL-C [2]	LDL-C [2]	Cell Survival Rate [3]	Plaque area/total aorta area (%) [4]	TNF-α level (ng/g) [5]
CC(=O)OC1CC2[C@@]3(C)CC[C@H](OC(C)=O)C(C)(C)C3CC[C@@]2(C)[C@]2(C)CCC([C@](C)(CCC=C(C)C)OC(C)=O)[C@@H]12 (stereo partly drawn) [Compound 16]	81 ± 12%	72 ± 21 ^a %	4.12 ± 0.90 ^a mmol/L	5.18 ± 1.26 ^a mmol/L	0.88 ± 0.01	10.41 ± 2.09 ^a %	15.94 ± 4.29 ^a ng/g
CC(=O)OC1CC2[C@@]3(C)CC[C@H](OC(C)=O)C(C)(C)C3CC[C@@]2(C)[C@]2(C)CCC([C@](C)(CCC3OC3(C)C)OC(C)=O)[C@@H]12 (stereo partly drawn) [Compound 17]	70 ± 15 ^a %	55 ± 21 ^a %	5.55 ± 0.56 ^a mmol/L	4.83 ± 1.51 ^a mmol/L	0.87 ± 0.07	8.53 ± 2.57 ^a %	15.27 ± 4.65 ^a ng/g
CC(=O)OC1CC2[C@@]3(C)CC[C@H](OC(C)=O)C(C)(C)C3CC[C@@]2(C)[C@]2(C)CCC([C@](C)(CCC=O)OC(C)=O)[C@@H]12 (stereo partly drawn) [Compound 18]	84 ± 16%	76 ± 14 ^a %	4.72 ± 0.91 ^a mmol/L	6.15 ± 1.28 mmol/L	0.85 ± 0.08	9.15 ± 2.85 ^a %	16.65 ± 4.57 ^a ng/g
COC(=O)[C@H](CC(C)C)NCCC[C@](C)(OC(C)=O)C1CC[C@]2(C)[C@@H]1C(OC(C)=O)CC1[C@@]3(C)CC[C@H](OC(C)=O)C(C)(C)C3CC[C@]12C (stereo partly drawn) [Compound 19]	63 ± 18 ^a %	43 ± 9 ^a %	5.13 ± 0.83 ^a mmol/L	4.62 ± 1.34 ^a mmol/L	0.91 ± 0.07	8.34 ± 2.41 ^a %	11.23 ± 3.69 ^a ng/g
COC(=O)[C@@H](NCCC[C@](C)(OC(C)=O)C1CC[C@]2(C)[C@@H]1C(OC(C)=O)CC1[C@@]3(C)CC[C@H](OC(C)=O)C(C)(C)C3CC[C@]12C)C(C)C (stereo partly drawn) [Compound 20]	79 ± 15 ^a %	63 ± 14 ^a %	4.72 ± 0.52 ^a mmol/L	6.62 ± 0.89 mmol/L	1.02 ± 0.13	9.67 ± 2.98 ^a %	15.98 ± 5.33 ^a ng/g
COC(=O)[C@H](NCCC[C@](C)(OC(C)=O)C1CC[C@]2(C)[C@@H]1C(OC(C)=O)CC1[C@@]3(C)CC[C@H](OC(C)=O)C(C)(C)C3CC[C@]12C)[C@@H](C)O (stereo partly drawn) [Compound 21]	65 ± 15 ^a %	47 ± 13 ^a %	5.82 ± 0.95 ^a mmol/L	4.31 ± 1.84 ^a mmol/L	0.94 ± 0.17	8.28 ± 3.29 ^a %	10.76 ± 3.54 ^a ng/g
COC(=O)[C@H](CO)NCCC[C@](C)(OC(C)=O)C1CC[C@]2(C)[C@@H]1C(OC(C)=O)CC1[C@@]3(C)CC[C@H](OC(C)=O)C(C)(C)C3CC[C@]12C (stereo partly drawn) [Compound 22]	76 ± 10 ^a %	65 ± 14 ^a %	4.29 ± 0.84 ^a mmol/L	6.31 ± 1.17 mmol/L	1.03 ± 0.15	10.32 ± 2.74 ^a %	18.14 ± 6.82 ^a ng/g
COC(=O)CCC(NCCC[C@](C)(OC(C)=O)C1CC[C@]2(C)[C@@H]1C(OC(C)=O)CC1[C@@]3(C)CC[C@H](OC(C)=O)C(C)(C)C3CC[C@]12C)C(=O)OC (stereo partly drawn) [Compound 23]	68 ± 18 ^a %	47 ± 19 ^a %	5.39 ± 0.61 ^a mmol/L	4.28 ± 1.46 ^a mmol/L	1.01 ± 0.09	8.64 ± 2.46 ^a %	12.61 ± 374^a ng/g
COC(=O)CNCCC[C@](C)(OC(C)=O)C1CC[C@]2(C)[C@@H]1C(OC(C)=O)CC1[C@@]3(C)CC[C@H](OC(C)=O)C(C)(C)C3CC[C@]12C (stereo partly drawn) [Compound 24]	79 ± 18 ^a %	66 ± 16 ^a %	4.68 ± 0.67 ^a mmol/L	5.65 ± 1.04 ^a mmol/L	0.89 ± 0.14	9.54 ± 2.65 ^a %	15.47 ± 2.88 ^a ng/g
